Common to all, as to experiment: NCI tumour cell line growth inhibition, 48 h
In test [1] the test system is SK-MEL-2 melanoma.
For test [2], the system named is HCT-15 colon.
Test [3] deals with IGROV1 ovarian.
In test [4] the test system is LOX IMVI melanoma.
The test system of test [5] is HOP-62 NSCLC.
Test [6] relates to RPMI-8226 leukemia.
In test [7] the test system is U251 CNS.
The test system of test [8] is BT-549 breast.
For test [9], the system named is HT29 colon.
The subject of test [10] is NCI-H226 lung.

SMILES strings stand for the structures.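 All cell lines were grown in 96-well plates and treated with compound for 48 hours. GI50 = concentration required for 50% inhibition of growth. TGI denotes the concentration required for complete inhibition of growth.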

For `ClCC#CCSc1ncnc2c1ncn2CC#CCCl`, the GI50 was 1.75 µM in [1]; 1.68 µM in test [2]; 1.03 µM in test [3]; 0.503 µM in test [4]; 1.28 µM in test [5]; 2.03 µM in test [6]. The GI50 in test [7] is 1.32 µM; in test [8], 1.61 µM; in [9], 1.65 µM. Further, the TGI in test [1] is 4.79 µM; in test [2], 5.97 µM; in test [3], 3.34 µM; in test [4] it was 2 µM; in test [5], 2.67 µM; in test [6], 6.38 µM. Moreover, the TGI in [7] was found to be 3.04 µM; in [8], 3.02 µM; in test [9] it was 3.85 µM.

On to `CCOC(=O)c1ccccc1-c1c2ccc(=[N+](C)C)cc-2oc2cc(N(C)C)ccc12`, for which the GI50 was 0.758 µM in test [10]; 0.579 µM in test [1]; 2.96 µM in test [2]; 0.332 µM in test [3]; 0.388 µM in [4]; 0.352 µM in [5]. The GI50 in [6] was 0.082 µM; in [7] it was 0.128 µM; in [8], 0.178 µM; in test [9] it was 0.211 µM. Further, the TGI in [10] is 10.2 µM; in [1], 4.1 µM; in test [2], over 37.2 µM; in test [3] it was 16.1 µM; in [4] it was 4.41 µM; in test [5] it was 10.3 µM. The TGI in [6] is 4.96 µM; in test [7], over 35.7 µM; in test [8] it was 2.77 µM.

As for `C1CC[N-]CC1.CC(=N\O)/C(C)=N/O.CC(=N\O)/C(C)=N/O.[CH2-]CCN1CCOCC1.[Co+2]`, the GI50 in test [10], in test [1], in test [2], in test [3], in test [4] and in test [5] was over 100 µM throughout. Besides, the GI50 in test [6], in test [7], in [8] and in test [9] was over 100 µM in each case. Further, the TGI in test [10], in test [1], in test [2], in test [3], in test [4] and in test [5] was over 100 µM each time. Besides, the TGI in test [6], in test [7], in [8] and in test [9] was over 100 µM each time.

For `COc1ccc(-c2c(N)n[nH]c2-c2cc(OC)c(OC)c(OC)c2)cc1`, the GI50 in test [10] is 0.644 µM; in test [1], 0.215 µM; in [2] it was 0.285 µM; in test [3], 0.769 µM; in test [4] it was 0.528 µM; in [5], 0.387 µM. Further, the GI50 is 0.331 µM in [6], 0.276 µM in test [7], 1.41 µM in test [8] and 0.247 µM in test [9]. Besides, the TGI in [10] was over 100 µM; in [1] it was over 100 µM; in test [2], over 100 µM; in [3], 60.5 µM; in test [4] it was over 100 µM; in test [5] it was over 100 µM. The TGI in test [6] is 22.5 µM; in test [7] it was over 100 µM; in [8], over 29 µM; in test [9], 3.29 µM.

Regarding `O=C(Nc1ccc(I)cc1F)c1cc(I)ccc1O`, the GI50 in test [10] is 0.739 µM; in [1], 0.319 µM; in [2], 0.452 µM; in test [3], 0.611 µM; in [4] it was 0.38 µM; in test [5], 0.815 µM. Besides, the GI50 in test [6] was 0.375 µM; in test [7] it was 0.661 µM; in test [8] it was 0.548 µM; in test [9], 3.71 µM. Moreover, the TGI in [10] is 6.11 µM; in test [1], 1.59 µM; in test [2] it was 19.7 µM; in [3], over 100 µM; in [4], 1.67 µM; in test [5], 3.4 µM. Besides, the TGI in test [6] was 1.64 µM; in test [7], over 100 µM; in test [8] it was 2.48 µM; in test [9] it was over 100 µM.

For the molecule `CCc1nc(-n2c(-c3ccccc3)nc3ccccc3c2=O)nc(N)c1-c1ccc(Cl)cc1`, the GI50 in test [10] is 69.2 µM; in test [2] it was 6.43 µM; in test [3], 27.1 µM; in [4], 3.94 µM; in [5], 14.7 µM; in [6] it was 50.3 µM. Further, the GI50 is 9.19 µM in [7], 90.7 µM in test [8] and 6.62 µM in test [9]. Also, the TGI in [10], in [2], in test [3], in test [4], in test [5] and in test [6] was over 100 µM throughout. Moreover, the TGI in test [7], in test [8] and in test [9] was over 100 µM each time.

`CN1CCN(CCOc2ccc(-c3cnc4c(-c5ccc(F)cc5)cnn4c3)cc2)CC1`: the GI50 in [1] is 2.09 µM; in test [2], 1.32 µM; in test [3], 1.63 µM; in test [4], 1.76 µM; in test [5], 1.85 µM; in test [6], 1.67 µM. Moreover, the GI50 is 1.39 µM in test [7], 2.68 µM in test [8] and 1.65 µM in test [9]. The TGI in [1] is 4.31 µM; in test [2], 2.75 µM; in [3] it was 3.3 µM; in [4], 3.25 µM; in test [5], 3.81 µM; in test [6], 4.67 µM. Further, the TGI stood at 2.94 µM in test [7], 9.44 µM in test [8] and 4.28 µM in test [9].

For `COc1cc(-c2nn(-c3ccc(NC(=O)c4cc(Cl)cc(Cl)c4)cc3)cc2-c2ccncc2)ccc1Cl`, the GI50 in test [10] was over 100 µM; in [1], over 100 µM; in [3], over 100 µM; in test [4], 3.09 µM; in test [5] it was 32 µM; in test [7] it was 6.23 µM. In addition, the GI50 is over 100 µM in [8] and 3.53 µM in [9]. Moreover, the TGI in test [10], in test [1], in test [3], in test [4], in [5] and in [7] was over 100 µM throughout. Further, the TGI in test [8] and in [9] was over 100 µM each time.

The values above are taken from PubChem BioAssay (NCI).
